Earlier results as cited in US20050250746A1, “Premenstrual dysphoric disorder medication” (priority 2004, published 2005).

How the values were obtained:
[1] = tested on: Severe Premenstrual Syndrome or Premenstrual Dysphoric Disorder; conditions: continuous or intermittent dosing
[2] = tested on: Severe Premenstrual Syndrome
Premenstrual Syndrome = conditions: review of published research

**Q.** For `CN[C@H]1CC[C@@H](c2ccc(Cl)c(Cl)c2)c2ccccc21` [seratraline, Sertraline], which “improvement versus placebo group” value [1] is on record?
**A.** improved significantly more than the placebo group

**Q.** With `Cc1nnc2n1-c1ccc(Cl)cc1C(c1ccccc1)=NC2` [alpazolam, Alprazolam] as the compound, how does the “reduction in daily symptom report scores” value ([2]; double-blind, versus placebo) read?
**A.** 50%

**Q.** What does the source list for `CC(=O)[C@H]1CC[C@H]2[C@@H]3CCC4=CC(=O)CC[C@]4(C)[C@H]3CC[C@]12C` [progesterone]?
**A.** difference between progesterone and placebo (Premenstrual Syndrome): no clinically important difference between progesterone and placebo; effectiveness of progesterone therapy versus placebo ([2]; oral progesterone): no better than placebo
